Measurements from PubChem BioAssay AID248 (DTP/NCI, 2004).
“And” between values parts separate entries of the source, which are not always exact repeats. Equal entries are not always repeated. Toxic doses and inconclusive results are not listed. No stated cut-off is given here; in the data, active means T/C of 150% or more; inactive means T/C below 125%.

System: L1210 leukemia ip in BDF1 mice, survival T/C
Experiment: NCI In Vivo Anticancer Drug Screen. Data for tumor model L1210 Leukemia (intraperitoneal) in B6D2F1 (BDF1) mice
Details: endpoint: mean survival time, higher = longer survival
In short: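 Antitumor effect is assessed in tumor-bearing animals. Survival in the compound arm is compared with a vehicle-dosed control arm and expressed as their quotient.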

[1] = dose: 50.0 mg/kg/injection, schedule: Q01DX009 (ip), vehicle: saline with Tween-80
[2] = dose: 100.0 mg/kg/injection, schedule: Q01DX009 (ip), vehicle: saline with Tween-80
[3] = dose: 100.0 mg/kg/injection, schedule: Q04DX003 (ip), vehicle: saline with Tween-80
[4] = dose: 200.0 mg/kg/injection, schedule: Q01DX009 (ip), vehicle: saline with Tween-80
[5] = dose: 100.0 mg/kg/injection, schedule: Q01DX001 (ip), vehicle: saline with Tween-80
[6] = dose: 100.0 mg/kg/injection, schedule: Q04DX002 (ip), vehicle: saline with Tween-80
[7] = dose: 200.0 mg/kg/injection, schedule: Q01DX001 (ip), vehicle: saline with Tween-80
[8] = dose: 200.0 mg/kg/injection, schedule: Q04DX002 (ip), vehicle: saline with Tween-80
[9] = dose: 200.0 mg/kg/injection, schedule: Q04DX003 (ip), vehicle: saline with Tween-80
[10] = dose: 400.0 mg/kg/injection, schedule: Q01DX001 (ip), vehicle: saline with Tween-80
[11] = dose: 400.0 mg/kg/injection, schedule: Q01DX009 (ip), vehicle: saline with Tween-80
[12] = dose: 400.0 mg/kg/injection, schedule: Q04DX002 (ip), vehicle: saline with Tween-80
[13] = dose: 400.0 mg/kg/injection, schedule: Q04DX003 (ip), vehicle: saline with Tween-80
[14] = dose: 100.0 mg/kg/injection, schedule: Q04DX003 (ip), vehicle: Klucel (hydroxypropylcellulose) (HPC)
[15] = dose: 200.0 mg/kg/injection, schedule: Q04DX003 (ip), vehicle: Klucel (hydroxypropylcellulose) (HPC)
[16] = dose: 400.0 mg/kg/injection, schedule: Q04DX003 (ip), vehicle: Klucel (hydroxypropylcellulose) (HPC)
[17] = dose: 100.0 mg/kg/injection, schedule: Q01DX001 (ip), vehicle: other
[18] = dose: 200.0 mg/kg/injection, schedule: Q01DX001 (ip), vehicle: other
[19] = dose: 400.0 mg/kg/injection, schedule: Q01DX001 (ip), vehicle: other
[20] = dose: 100.0 mg/kg/injection, schedule: Q04DX002 (ip), vehicle: Klucel (hydroxypropylcellulose) (HPC)
[21] = dose: 200.0 mg/kg/injection, schedule: Q04DX002 (ip), vehicle: Klucel (hydroxypropylcellulose) (HPC)
[22] = dose: 400.0 mg/kg/injection, schedule: Q04DX002 (ip), vehicle: Klucel (hydroxypropylcellulose) (HPC)
[23] = dose: 100.0 mg/kg/injection, schedule: Q01DX009 (ip), vehicle: saline
[24] = dose: 200.0 mg/kg/injection, schedule: Q01DX009 (ip), vehicle: saline
[25] = dose: 400.0 mg/kg/injection, schedule: Q01DX009 (ip), vehicle: saline

Measured: T/C

Cc1ccc(C(=O)C2CC2)cc1C
inactive: [1] 100 % of control | [2] 91 % of control | [3] 98 % of control | [4] 91 % of control | dose: 202.0 mg/kg/injection, schedule: Q04DX003 (ip), vehicle: saline with Tween-80 107 % of control

CC(=O)Nc1ccc(OC(=O)Nc2cccc(Cl)c2C)cc1
inactive: [1] 88 % of control and 92 % of control | [5] 92 % of control | [6] 87 % of control and 89 % of control | [3] 93 % of control | [7] 94 % of control | [8] 86 % of control | [9] 87 % of control | [10] 100 % of control | [11] 101 % of control | [12] 96 % of control and 86 % of control | [13] 90 % of control

O=C1c2ccccc2-c2cccc3ccc(C4CCCCC4)c1c23
inactive: [5] 88 % of control | [7] 88 % of control | [10] 92 % of control

O=P1(N(CCF)CCCl)NCCCO1 (stereo not drawn)
inactive: dose: 10.0 mg/kg/injection, schedule: Q01DX Z (ip), vehicle: other 94 % of control | dose: 30.0 mg/kg/injection, schedule: Q01DX Z (ip), vehicle: other 102 % of control

Nc1ccc2ccc3ccc4ccccc4c3c2c1
inactive: dose: 100.0 mg/kg/injection, schedule: Q01DX001 (ip), vehicle: Klucel (hydroxypropylcellulose) (HPC) 97 % of control | [14] 104 % of control | dose: 200.0 mg/kg/injection, schedule: Q01DX001 (ip), vehicle: Klucel (hydroxypropylcellulose) (HPC) 103 % of control | [15] 113 % of control | dose: 400.0 mg/kg/injection, schedule: Q01DX001 (ip), vehicle: Klucel (hydroxypropylcellulose) (HPC) 100 % of control | [16] 90 % of control

Cc1noc(N)c1N
inactive: dose: 100.0 mg/kg/injection, schedule: Q01DX009 (ip), vehicle: water 105 % of control | dose: 100.0 mg/kg/injection, schedule: Q04DX003 (ip), vehicle: water 93 % of control | dose: 200.0 mg/kg/injection, schedule: Q01DX009 (ip), vehicle: water 115 % of control | dose: 200.0 mg/kg/injection, schedule: Q04DX003 (ip), vehicle: water 96 % of control | dose: 400.0 mg/kg/injection, schedule: Q01DX009 (ip), vehicle: water 121 % of control | dose: 400.0 mg/kg/injection, schedule: Q04DX003 (ip), vehicle: water 102 % of control

COC(=O)c1ccc(C)cc1C(=O)OC
inactive: [1] 107 % of control | [2] 111 % of control | [4] 107 % of control

CC(=O)Nc1ccc2ncccc2c1[N+](=O)[O-]
inactive: [17] 102 % of control | [18] 100 % of control | [19] 100 % of control

CSC(=N)c1cccc(OCc2ccccc2)c1
inactive: dose: 100.0 mg/kg/injection, schedule: Q01DX009 (ip), vehicle: Klucel (hydroxypropylcellulose) (HPC) 113 % of control | [20] 100 % of control | dose: 100.0 mg/kg/injection, schedule: Q04DX002 (ip), vehicle: saline 102 % of control | dose: 200.0 mg/kg/injection, schedule: Q01DX009 (ip), vehicle: Klucel (hydroxypropylcellulose) (HPC) 96 % of control | [21] 103 % of control | dose: 200.0 mg/kg/injection, schedule: Q04DX002 (ip), vehicle: saline 102 % of control | [22] 94 % of control | dose: 400.0 mg/kg/injection, schedule: Q04DX002 (ip), vehicle: saline 102 % of control

[Cl][Pb]([Cl])([c]1ccccc1)[c]1ccccc1
inactive: dose: 12.5 mg/kg/injection, schedule: Q04DX002 (ip), vehicle: Klucel (hydroxypropylcellulose) (HPC) 88 % of control | dose: 25.0 mg/kg/injection, schedule: Q04DX002 (ip), vehicle: Klucel (hydroxypropylcellulose) (HPC) 88 % of control | dose: 50.0 mg/kg/injection, schedule: Q04DX002 (ip), vehicle: Klucel (hydroxypropylcellulose) (HPC) 91 % of control

CC(=O)C(C(C)=O)C1C=CC=CC=C1
inactive: [1] 93 % of control | [2] 104 % of control | dose: 100.0 mg/kg/injection, schedule: Q04DX003 (ip), vehicle: saline 95 % of control | [4] 86 % of control | dose: 200.0 mg/kg/injection, schedule: Q04DX003 (ip), vehicle: saline 122 % of control

CC1C(=O)CC(C)(C)CC1=O
inactive: [2] 105 % of control | [4] 109 % of control | [11] 104 % of control

O=S(OCc1ccccc1)OCc1ccccc1
inactive: [23] 98 % of control | [24] 104 % of control | [25] 91 % of control

CCC1=C(C)C(=O)Nc2c3ncnc-3ncn2C1O (stereo not drawn)
inactive: [5] 100 % of control | [7] 105 % of control | [10] 103 % of control

O=C(/C=C/c1ccccc1)NC(=S)Nc1ccccc1C(F)(F)F
inactive: dose: 12.5 mg/kg/injection, schedule: Q01DX009 (ip), vehicle: saline with Tween-80 93 % of control and 100 % of control | [5] 92 % of control | [6] 91 % of control | [3] 103 % of control | [7] 97 % of control | [8] 95 % of control and 101 % of control | [9] 91 % of control | [10] 112 % of control | [11] 86 % of control | [12] 93 % of control and 95 % of control | [13] 91 % of control

COC(OC)c1nc(N)[nH]c(=O)c1Cc1cccc2ccccc12
inactive: [20] 97 % of control | [21] 86 % of control | [22] 105 % of control

O=c1ccn2c(n1)OC1C(O)C(CO)OC12 (stereo not drawn)
inactive: dose: 100.0 mg/kg/injection, schedule: Q01DX005 (ip), vehicle: saline 103 % of control | [23] 97 % of control | dose: 200.0 mg/kg/injection, schedule: Q01DX005 (ip), vehicle: saline 111 % of control | [24] 109 % of control | [25] 101 % of control

O=C(NCCCl)Nc1cccc2c(O)cccc12
inactive: [14] 98 % of control | [15] 96 % of control | [16] 107 % of control

O=[N+]([O-])c1ccc(C(=Nc2ccccc2)Nc2ccccc2)cc1
inactive: [3] 101 % of control | [9] 98 % of control | [13] 98 % of control

O=C(O)C1CO1 (stereo not drawn)
inactive: dose: 100.0 mg/kg/injection, schedule: Q01DX001 (ip), vehicle: acetone 102 % of control | dose: 200.0 mg/kg/injection, schedule: Q01DX001 (ip), vehicle: acetone 98 % of control | dose: 400.0 mg/kg/injection, schedule: Q01DX001 (ip), vehicle: acetone 101 % of control

OC1C2C=CC1C1C=CC1=CC2 (stereo not drawn)
inactive: dose: 50.0 mg/kg/injection, schedule: Q01DX001 (ip), vehicle: saline with Tween-80 103 % of control | [5] 108 % of control | [7] 98 % of control
